This passage reports GI50 and TGI results from PubChem BioAssay (NCI).

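Tested at 5 concentrations; 48 h exposure; 96-well plates; endpoints linearly interpolated, else capped at highest concentration. GI50 = concentration required for 50% inhibition of growth. TGI denotes the concentration required for complete inhibition of growth.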 A value given as a limit tells only on which side of the number the result lay.

Broadly, the GI50 is the concentration giving 50% growth inhibition. Broadly, the TGI is the concentration at which net growth stops. Higher therefore signals lower sensitivity of the cells.

Among the test systems are CCRF-CEM leukemia; HL-60(TB) leukemia; SK-MEL-28 melanoma; SF-539 CNS; NCI-H522 lung; SW-620 colon; OVCAR-5 ovarian; NCI-H226 lung; HOP-92 NSCLC; COLO 205 colon.
Assay in all cases: DTP human tumour cell line panel, 48 h

Regarding `CN(C)CCCNC1=C(Cl)C(=O)c2ccccc2C1=O`, the GI50 with CCRF-CEM leukemia was 3.9 µM; with HL-60(TB) leukemia, 2.54 µM; with SK-MEL-28 melanoma, 1.88 µM; in the test on SF-539 CNS, 12.8 µM; in the test with NCI-H522 lung, 2.03 µM; in the test on SW-620 colon, 1.69 µM. The GI50 in the test on OVCAR-5 ovarian was 4.27 µM; with NCI-H226 lung, 5.38 µM; with HOP-92 NSCLC, 2.86 µM; in the test on COLO 205 colon, 1.9 µM. Moreover, the total growth inhibition concentration (TGI) with CCRF-CEM leukemia came out at 14.4 µM; in the test on HL-60(TB) leukemia, 5.84 µM; in the test on SK-MEL-28 melanoma it was 3.41 µM; with SF-539 CNS it was 27 µM; with NCI-H522 lung it was 3.83 µM; in the test on SW-620 colon, 3.42 µM. The TGI is 9.63 µM in the test with OVCAR-5 ovarian, 10.6 µM with NCI-H226 lung, 12.3 µM with HOP-92 NSCLC and 3.45 µM with COLO 205 colon.

As for `CCOC(=O)c1ncn2c1[nH]c(=S)c1ccccc12`, the TGI is more than 100 µM with CCRF-CEM leukemia; more than 100 µM with HL-60(TB) leukemia; more than 100 µM in the test with SK-MEL-28 melanoma; more than 100 µM in the test on SF-539 CNS; more than 100 µM with NCI-H522 lung; 62 µM in the test with SW-620 colon. The TGI with OVCAR-5 ovarian, in the test on NCI-H226 lung, in the test with HOP-92 NSCLC and in the test with COLO 205 colon was more than 100 µM each time.

For `CC[C@@]12CCCN3CC[C@]4(c5cccc(OC)c5N(C(C)=O)[C@@H]4CC1)[C@H]32`, the TGI with CCRF-CEM leukemia was 57.1 µM; with HL-60(TB) leukemia it was 44.6 µM; in the test with SK-MEL-28 melanoma, more than 100 µM; with SF-539 CNS, more than 100 µM; with NCI-H522 lung, more than 100 µM; with SW-620 colon, more than 100 µM. The TGI with OVCAR-5 ovarian, with NCI-H226 lung, in the test with HOP-92 NSCLC and in the test with COLO 205 colon was more than 100 µM throughout.

`CC1(C)COC(c2ccc(C(F)(F)F)cc2C(O)c2ccc3ccccc3c2)=N1` (stereo unspecified): the GI50 in the test with CCRF-CEM leukemia was more than 100 µM; in the test with HL-60(TB) leukemia, more than 10 µM; in the test on SK-MEL-28 melanoma, more than 100 µM; in the test with SW-620 colon, more than 100 µM; in the test with OVCAR-5 ovarian, more than 100 µM; in the test with NCI-H226 lung, more than 10 µM. The GI50 with COLO 205 colon was more than 100 µM. The TGI is more than 100 µM with CCRF-CEM leukemia; more than 100 µM in the test with HL-60(TB) leukemia; more than 100 µM in the test with SK-MEL-28 melanoma; more than 100 µM with SF-539 CNS; more than 10 µM with NCI-H522 lung; more than 100 µM in the test on SW-620 colon. Besides, the TGI in the test with OVCAR-5 ovarian, with NCI-H226 lung, with HOP-92 NSCLC and in the test on COLO 205 colon was more than 100 µM in each case.

Turning to `C[C@@H](CS(C)(=O)=O)Nc1ncc2cc(Oc3ccc(F)cc3F)c(=O)n(C)c2n1`, the GI50 in the test on CCRF-CEM leukemia, in the test on HL-60(TB) leukemia, in the test on SK-MEL-28 melanoma, in the test with SF-539 CNS, in the test on NCI-H522 lung and in the test with SW-620 colon was more than 25 µM in each case. Also, the GI50 is more than 25 µM in the test with OVCAR-5 ovarian, more than 25 µM with NCI-H226 lung, more than 6.75 µM in the test with HOP-92 NSCLC and more than 25 µM in the test with COLO 205 colon. Further, the TGI with CCRF-CEM leukemia, in the test with HL-60(TB) leukemia, in the test on SK-MEL-28 melanoma, in the test with SF-539 CNS, in the test on NCI-H522 lung and with SW-620 colon was more than 25 µM throughout. Also, the TGI in the test with OVCAR-5 ovarian, with NCI-H226 lung, in the test on HOP-92 NSCLC and in the test with COLO 205 colon was more than 25 µM throughout.

Regarding `Cn1ccnc1C(=O)/C=C/c1ccc(CC(=O)Nc2ccc(Br)cc2)cc1`, the GI50 with CCRF-CEM leukemia is 3.04 µM; in the test with HL-60(TB) leukemia it was 4.58 µM; in the test with SK-MEL-28 melanoma, 3.32 µM; in the test on SF-539 CNS, 2.43 µM; in the test on NCI-H522 lung, 3.83 µM; in the test on SW-620 colon, 4.15 µM. Besides, the GI50 in the test on OVCAR-5 ovarian is 2.74 µM; in the test on NCI-H226 lung, 4.15 µM; in the test on HOP-92 NSCLC, 3.15 µM; in the test with COLO 205 colon it was 3.56 µM. For the same compound, the TGI in the test on CCRF-CEM leukemia was more than 16.7 µM; with HL-60(TB) leukemia it was more than 16.7 µM; with SK-MEL-28 melanoma, 7.63 µM; in the test on SF-539 CNS it was 4.81 µM; in the test on NCI-H522 lung it was 8.25 µM; in the test on SW-620 colon it was 13.4 µM. Moreover, the TGI in the test on OVCAR-5 ovarian is 7.38 µM; with NCI-H226 lung, more than 16.7 µM; in the test on HOP-92 NSCLC, 8.26 µM; in the test on COLO 205 colon, 8.28 µM.

Turning to `COc1cc2c(c(OC)c1O)C(=O)C(OC)C(c1ccc(O)c(O)c1)O2` (stereo unspecified), the GI50 with CCRF-CEM leukemia was 0.428 µM; in the test with HL-60(TB) leukemia, 0.072 µM; in the test with SK-MEL-28 melanoma it was 10.1 µM; in the test with SF-539 CNS, 0.0798 µM; in the test on NCI-H522 lung it was 0.0599 µM; in the test with SW-620 colon it was 0.234 µM. The GI50 with OVCAR-5 ovarian is 2.27 µM; in the test with NCI-H226 lung, 4.8 µM; in the test with HOP-92 NSCLC, 0.697 µM; with COLO 205 colon it was 23.5 µM. The TGI in the test with CCRF-CEM leukemia is more than 31 µM; in the test with HL-60(TB) leukemia, 3.62 µM; in the test on SK-MEL-28 melanoma, more than 100 µM; with SF-539 CNS, 4.56 µM; in the test on SW-620 colon it was more than 100 µM; in the test with OVCAR-5 ovarian, more than 100 µM. Moreover, the figures for the concentration for total growth inhibition (TGI) with NCI-H226 lung, in the test on HOP-92 NSCLC and in the test with COLO 205 colon were more than 100 µM, more than 28.9 µM and more than 82.8 µM, respectively.

`Cc1cnc(NC(=O)C(Cc2ccccc2)NC(=O)c2ccccc2)s1` (stereo unspecified): the GI50 in the test with CCRF-CEM leukemia is 34.7 µM; with HL-60(TB) leukemia it was 21.2 µM; in the test on SK-MEL-28 melanoma, 19.8 µM; in the test with SF-539 CNS, 14.2 µM; in the test with NCI-H522 lung, 1.53 µM; with SW-620 colon, 14 µM. Besides, the GI50 is 25.3 µM in the test on OVCAR-5 ovarian, 2.04 µM in the test with NCI-H226 lung, 29.9 µM in the test on HOP-92 NSCLC and 13.5 µM with COLO 205 colon. For the same compound, the total growth inhibition concentration (TGI) in the test on CCRF-CEM leukemia was more than 100 µM; with HL-60(TB) leukemia, 51.5 µM; in the test on SK-MEL-28 melanoma it was 49.9 µM; with SF-539 CNS it was 31.1 µM; with NCI-H522 lung it was 21.8 µM; in the test on SW-620 colon it was 30.6 µM. The concentration for total growth inhibition (TGI) is 63.7 µM with OVCAR-5 ovarian, 7.05 µM with NCI-H226 lung, more than 100 µM with HOP-92 NSCLC and 29.5 µM in the test with COLO 205 colon.
